Article PMC3302888, “Small-Animal PET Imaging of Amyloid-Beta Plaques with [^11C]PiB and Its Multi-Modal Validation in an APP/PS1 Mouse Model of Alzheimer's Disease” (PLoS ONE, 2012)
Several values for one entry are separate records, joined by “and”; a condition that tells them apart may be missing. Equal entries are not always repeated. Where two headings read alike, the source gives them in different places.

Assays:
[1] = system: mouse brain tissue homogenate (APP/PS1 hemi-forebrain); test: Radioligand saturation binding assay with [^3H]PiB, mouse brain homogenate
Protocol: (§1) The frozen mouse hemi-forebrains (50 mg/ml) and human brain samples (100 mg/ml) for the radioligand binding assay were first prepared in tissue homogenization buffer (20 mM Tris base, 1 mM EDTA, 1 mM EGTA, cOmplete Protease Inhibitor Cocktail (Roche Applied Science, Mannheim, Germany)) using a 30 ml hand glass homogenizer (Dounce type, tight fit) (Sartorius Stedim Biotech, Göttingen, Germany) which was used for subsequent ELISA analysis. The stocks were then supplemented with 250 mM sucrose and stored at −70°C for later tracer binding analysis. All other tissue samples were processed for ELISA as reported by Willuweit et al.
(§2) All brain homogenates were diluted in PBE buffer (10 mM dibasic sodium phosphate, 1 mM EDTA, 10% EtOH) to a final concentration of 1000 µg/ml. Synthetic human Aβ1–40 fibrils (EZBioLab, Carmel, IN, USA) were prepared as described by Lockhart et al. (0.5 mg/ml, pH 7.4, 200 rpm at 37°C for 48 h) and were used as positive control at a final concentration of 10 µg/ml (Figure S8).
(§3) Nonspecific binding was determined in the presence of 3 µM unlabeled PiB (ABX, Radeberg, Germany) including 1 h preincubation. Each tissue sample was deployed on two 96-well cell culture plates (Greiner Bio-One, Frickenhausen, Germany) to a final reaction volume of 280 µl per well using 8-channel electronic pipettes (Mettler Toledo, Giessen, Germany) giving 24 octuples of data points per sample.
(§4) The bound and free fractions were seperated by vacuum filtration through 0.3% polyethyleneimine-pretreated GF/B glass filtermats (GE Healthcare/Whatman, Dassel, Germany) using a semi-automated Harvester 96 Mach II M (Tomtec, Hamden, CT, USA). A constant automated 5-cycle pulse-wash program (optimized for flow rate and volume) guaranteed stable harvesting with 1.2 ml PBE washing per well at 2 psi.
(§5) Filters were cut and incubated in Aquasafe300plus scintillator (Zinsser Analytic, Frankfurt, Germany) for 36 h before counting in a Wallac WinSpectral 1414 liquid scintillation counter (PerkinElmer, Rodgau, Germany).
(§6) The specific binding signal under these assay conditions was between 56% (human) and 91% (synthetic protein). Data were analyzed using GraphPad Prism version 5.0 d for Mac (GraphPad Software, La Jolla, CA, USA) to estimate the apparent dissociation constant (Kd), the maximal number of binding sites (Bmax) and the in vitro binding potential (BP) using the one-site and two-site global analysis models.
(§7) Division by Kd in nanomolar units directly results in BP.

[2] = system: human brain; set-up: method as in PMID 16291932; details: humans; cited from earlier work
[3] = system: postmortem human brain tissue homogenate (temporal cortex); test: Radioligand saturation binding assay with [^3H]PiB, human brain homogenate
Protocol: as §1, §2, §3, §4, §5, §6, §7

[4] = system: APP/PS1 mouse brain; set-up: method as in PMID 16291932; details: very old hemizygous APP/PS1 animals; classical Scatchard analysis; cited from earlier work
[5] = system: Aβ plaques; test: Small-animal PET of mouse brain with [^11C]PiB, cerebellum as reference region; type: in vivo; details: for BPND (MRTM2, Ichise et al., 2003) mean ± SD: neocortex target, cerebellum reference; for PET BPND neocortex: [^3H]PiB/[^11C]PiB cocktail, 30 min scan
Source text: Most of the small-animal PET data was acquired with a microPET FOCUS F120 scanner (Siemens Medical Solutions, Malvern, USA). In the combined multi-modal experiment PET data for the four animals was acquired with a docked Siemens Inveon PET/CT system (Siemens Medical Solutions, Knoxville, USA), [66], [67].
After induction of anesthesia and placement of the catheter systems, the animals were placed with their heads in the center of the field of view and were fixed in the scanner in prone head first position (HFP). At the beginning of the PET scanning procedure, a 9 min transmission scan (^68Ge rod source, Focus F120) or CT scan (Inveon) was performed in all animals.
[^11C]PiB was given via the catheter system intravenously in a slow bolus, followed by flushing with isotonic saline solution such that the total applied volume was 0.22±0.06 ml. The amount of injected activity was controlled real-time with registered prompts such that they ranged between 150000 to 200000 at the end of [^11C]PiB application, ensuring a dead time <5% at 30 min p.i.. The radioactivity in the syringe was measured immediately before and after injection with a Capintec CRC 15R (Capintec Inc, NJ, USA) dose calibrator. The time between measurements was 2 to 3 min.
Dynamic data acquisition was performed in 3D listmode for 30 or 60 min starting immediately with injection of the tracer. The emission data were normalized and corrected for decay and dead time. The resulting sinograms were reconstructed with FBP (filtered back-projection using a ramp filter with a cut-off at the Nyquist frequency) into 2, 3, 6, 12, 60 and 120 frames of equal length used for motion correction, ratio measurements and image production and 52 frames (24×10 s, 12×30 s, 10×120 s, 6×300 s) and 162 frames (120×1 s, 24×10 s, 8×30 s, 10×300 s) for time-activity-curve (TAC) generation. The image volume consisted of 128×128×95 voxels, with a size of 0.866×0.866×0.796 mm^3 per voxel for the Focus F120 scanner and 128×128×159 voxels, with a size of 0.776×0.776×0.796 mm^3 per voxel for the Inveon scanner.
To assess varying PiB retention of individual animals within the study collective and to verify the consistency of results, three quantification methods were used similar to Maeada et al.. First, [^11C]PiB uptake in the target region was divided by [^11C]PiB uptake in the cerebellum as measured in a static 10 min-frame (20–30 min). Second, the tissue ratio methods as proposed by Ito et al. were calculated. Third, the multilinear reference tissue model 2 (MRTM2, [45]) was fitted to cortex time-activity curves (TACs) (merged neocortex) after reduction of parameters by estimating individual efflux rate constants for [^11C]PiB from the reference region (k2′) with the MRTM [45] and four regional cortical time-activity curves.
Parametric images of [^11C]PiB retention (BPND maps (MRTM2)) were generated for four representative mice (Figure 2 and S1). For all analyses, the cerebellum was used as the reference region. To quantify the dynamic data, TACs with high initial time resolution (162 frames: 120×1 s, 24×10 s, 8×30 s, 10×300 s) were used (Figure 1).
Then, the radioactivity of the whole animal was measured in a Capintec dose calibrator, the animal killed by decapitation, the whole brain taken out and blood drawn for biodistribution and radioactivity measurement. One half of the brain was dissected for regional brain biodistribution (olfactory system, telencephalon, cerebellum and remaining brain structures (diencephalon, midbrain)) and deep-frozen immediately after gamma counting for later ELISA analysis of soluble and insoluble Aβx–40 and Aβx–42. […]

In the case of `CNc1ccc(-c2nc3ccc(O)cc3s2)cc1` [[^3H]PiB], the “in vitro binding potential (BP)” value ([1]; mouse control brain (msCTL), total binding not different to nonspecific binding) is reported as ~0, the “in vitro binding potential (BP)” value ([1]; tg-old mouse brain tissue, single binding site model) is reported as 11.9±0.9 and 11.9 and the “in vitro binding potential (BP)” value ([1]; tgtg-old mouse brain tissue, single binding site model) is reported as 69 and 69.2±2.7 and 69.2. For the same molecule, the “Bmax of the high-affinity component” value ([1]; tgtg-old tissue, two site binding model) was 289.3 ± 123.9 fmol/mg, the Kd ([1]; tgtg-old tissue, two site binding model, read-out: Kd of the high-affinity component) was 5.7 ± 4.1 nM and the “in vitro binding potential (BP)” value ([1]; tgtg-young mouse brain tissue, single binding site model) was 14.3±0.9 and 14.3. The “BP of high-affinity binding sites” value [2] was 636, the “in vitro binding potential (BP)” value ([3]; huAD-0 (mild human AD, Cerad-0, Braak II), single binding site model) was ~0 and the “in vitro binding potential (BP)” value ([3]; huAD-C (severe human AD, Cerad-C, Braak V), single binding site model) was 38 and 38.2±4.7 and 38.2. For the same molecule, the “tracer concentration at which saturation binding was reached” value ([3]; huAD-C homogenate) was “around 8 nM”, the Bmax ([3]; huAD-C homogenate, single binding site model) was 200 ± 12 fmol/mg and the Kd ([3]; huAD-C homogenate, single binding site model, read-out: Kd) was 5.2 ± 0.9 nM. For the same molecule, the “Bmax of the high-affinity component” value ([3]; huAD-C, two site binding model) was 156.7 ± 7.3 fmol/mg, the Kd ([3]; huAD-C, two site binding model, read-out: Kd of the high-affinity component) was 3.4 ± 1.4 nM and the “in vitro binding potential (BP)” value ([3]; huCTL (human control brain, Cerad-0, Braak I), single binding site model) was ~0. The “BP of the high-affinity component” value [4] was 78.

In the case of `[11CH3]Nc1ccc(-c2nc3ccc(O)cc3s2)cc1` [[^11C]PiB, N-[^11C-methyl]-6-OH-BTA-1], the “BPND (MRTM2, Ichise et al., 2003) mean ± SD” value ([5]; ctl-old (N = 5)) is reported as -0.08 ± 0.01, the “PET BPND neocortex” value ([5]; individual animals AD1, AD2 (tgtg-young, 9 months)) is reported as 0.06 and the “PET BPND neocortex” value ([5]; individual animals CTL1, CTL2 (ctl-young)) is reported as −0.06 and −0.07. The “BPND (MRTM2, Ichise et al., 2003) mean ± SD” value ([5]; tg-old (N = 5)) was 0.28 ± 0.06, the “BPND (MRTM2, Ichise et al., 2003) mean ± SD” value ([5]; tgtg-old (N = 7)) was 0.51 ± 0.13 and the “BPND (MRTM2, Ichise et al., 2003) mean ± SD” value ([5]; tgtg-young (N = 5)) was 0.12 ± 0.04.
